Source: a melting point compilation (Tetko et al.; mined from patent text by program, amines drawn as free bases though some values may be those of a salt)

Row | SMILES | melting point [°C]
1 | N#Cc1ccc(C(=O)CNc2ccc(I)cc2)cc1 | 160 to 165
2 | CSC(=C[N+](=O)[O-])NCCN(C)Cc1ccc(Cl)nc1 | 93 to 95
3 | COc1c(C(C)(C)C)cc(C(N)=O)cc1C(C)(C)C | 239 to 243
4 | CCCCCCCCCCCCCCCCCCC1CC(=O)N(c2ccc(N)cc2O)C1=O (stereo not drawn) | 85 to 90
5 | O=C1OC(c2cccc3ccccc23)=NC1=Cc1ccccc1 | 134 to 137
6 | Cc1cc(Oc2c(Cl)cc(C(F)(F)F)cc2Cl)nn1C(=O)NCC(F)(F)F | 104 to 106
7 | FC(F)(F)c1ccc2c(c1)N(CC1CN3CCC1CC3)c1ccccc1S2 (stereo not drawn) | 150
8 | N#CN=C(Nc1cccnc1)NC(NC(=O)c1ccc(I)cc1)C(Cl)(Cl)Cl (stereo not drawn) | 208 to 210
9 | COc1nccc2oc(S(N)(=O)=O)cc12 | 180 to 182
10 | N#Cc1cc(Sc2ccc(Cl)c(Cl)c2)ccc1N | 126 to 128
11 | Cc1ccc(Cn2ccnc2)cc1 | 51 to 53
12 | COc1ccc([C@H](Sc2ccccc2N)[C@@H](O)C(=O)Nc2ccccc2)cc1 | 215 to 217
13 | CNC(=O)c1nnn(Cc2ccccc2)c1N | 151 to 153
14 | Nc1cccc(Cc2nnn[nH]2)c1 | 140
15 | CC(O)CCCCCCCc1ccc(O)c(O)c1 (stereo not drawn) | 58 to 61
16 | COc1cccc(C(=O)Nc2ccc(S(N)(=O)=O)cc2)c1SSc1c(OC)cccc1C(=O)Nc1ccc(S(N)(=O)=O)cc1 | 188 to 189
17 | Nc1c(C(F)(F)F)cc(OCc2ccccc2)cc1C(F)(F)F | 58 to 59
18 | N#Cc1cncnc1N1CCc2ccccc2CC1 | 148 to 150
19 | O=C(NC(Cc1ccccc1)C(=O)O)OCc1ccc(CCOc2ccccc2)cc1 (stereo not drawn) | 150 to 152
20 | COc1cc(C)cc(OC)c1N(CCC(C)C)C(=O)CNC(=O)OC(C)(C)C | 132
21 | CN1C(=O)CN=C(c2ccccc2)c2c1cc(Cl)c(N)c2Cl | 228

Row | SMILES | melting point [°C]
22 | S=C1CN=C(c2ccccc2Cl)c2cc(CCc3ccc(-c4ccccc4)cc3)sc2N1 | 187 to 189
23 | CC(c1ccc(Cl)cc1)N1CCNC1=NC(N)=S (stereo not drawn) | 107
24 | CS(=O)(=O)c1nnc(C(F)(F)F)s1 | 84
25 | C/C(Cl)=C\C(=O)Nc1ccc(C)cc1 | 108 to 109
26 | N#Cc1ccc(C(=O)N2CC2C#N)cc1 (stereo not drawn) | 107 to 110
27 | O=S1(=O)c2cccc3cccc(c23)N1CCN1CCC(CC2CCc3ccccc32)CC1 (stereo not drawn) | 127
28 | N#Cc1c([N+](=O)[O-])ccc(Cl)c1CBr | 89
29 | CCS(=O)c1ccc(-c2nc(-c3ccc(F)cc3)c(-c3ccncc3)[nH]2)cc1 (stereo not drawn) | 240
30 | COc1cc(C=C(C(C)=O)C(C)=O)cc(OC)c1OC | 83 to 86
31 | COc1ccc(C2CN(Cc3ccc4ccccc4n3)C(=O)N(Cc3ccc4ccccc4n3)C2)cc1OC1CC2CCC1C2 (stereo not drawn) | 135 to 136
32 | CS(=O)c1cncc(-c2nc(=O)c3ccccc3s2)n1 (stereo not drawn) | 228 to 230
33 | O=C(CO)c1cccc(Br)c1 | 100 to 101
34 | CC(C)(NC(=O)CCS)C(=O)O | 169 to 170
35 | CS(=O)(=O)Nc1cc(NC(=N)c2ccccc2)cc(NC(=O)/C=C/c2ccccc2C(F)(F)F)c1 | 150 to 155
36 | CCCCCCOc1ccccc1C(=O)CCCCC(=O)O | 64 to 65
37 | CC(C)(C)NS(=O)(=O)c1cnc(-c2cn(-c3cc(C(F)(F)F)cc(-c4ccc(C(F)(F)F)cc4)n3)cn2)s1 | 236
38 | CN(C)CCNC(=O)c1cccc([N+](=O)[O-])c1 | 89 to 90
39 | CC(C)(C)OC(=O)NCCOc1noc2ccccc12 | 106 to 107
40 | c1cc2[nH]ncc2cc1NC1CCN(CC2CCCCC2)CC1 | 179 to 180
41 | N#CNC(=NC1CCN(Cc2ccccc2)CC1)NC1CCc2ccccc21 (stereo not drawn) | 159 to 160
42 | O=C(Nc1ccc(-c2cnc(-c3ccc(NC(=O)C4CCCCC4)cc3)[nH]2)cc1)c1cccnc1 | 315 to 317

Row | SMILES | melting point [°C]
43 | O=C(OC(c1ccccc1)c1ccccc1)C1=CCC2CC(=O)C12 (stereo not drawn) | 115 to 116
44 | CC(C)c1nc2c([nH]1)c(=O)[nH]c(=O)n2Cc1ccncc1 | 305 to 307
45 | CN(C)C=NC(C#N)=CN(C)C | 78 to 81
46 | O=CNCc1c[nH]c(=S)n1[C@H]1CCc2c(F)cc(F)cc2C1 | 245 to 246
47 | Cc1cc(Br)cnc1CCCCNC1=NS(=O)(=O)c2ccccc21 | 232 to 244
48 | O=C(NC1CCC2(O)C3Cc4ccc(O)c5c4C2(CCN3CC2CC2)C1O5)c1ccccc1 (stereo not drawn) | 182 to 185
49 | CCCC1CCc2cc(NC(=O)OCC)ccc2O1 (stereo not drawn) | 94
50 | COc1ccc(OC)c(S(=O)(=O)c2ccc(Cl)cc2NC(=O)N[C@@H](Cc2ccc(NC(=O)c3c(Cl)cccc3Cl)cc2)C(=O)O)c1 | 180
51 | CCCOCCOc1ccc(-c2ccc3c(c2)C=C(C(=O)OC)CCS3(=O)=O)cc1 | 105 to 107
52 | O=[N+]([O-])c1ccc(N2CCN(CCCCCCCCCCCO)CC2)cc1 | 118
53 | CN(C1CCN(Cc2ccc(F)cc2)CC1)S(=O)(=O)c1ccc(Nc2nccc(Nc3ccc(F)cc3)n2)cc1 | 129 to 131
54 | COC(=O)c1ccc(Nc2cccc3ccccc23)cc1 | 130 to 132
55 | COC(=O)COc1c(Cl)cc(C(=O)CN2CCN(c3ccncc3)CC2)cc1Cl | 149 to 150
56 | CS(=O)(=O)OC[C@@H]1NC(=O)[C@@H]1n1c(-c2ccccc2)c(-c2ccccc2)oc1=O (relative stereo) | 185 to 188
57 | Cc1ccccc1NC(=O)CN1C(=O)c2ccccc2C1=O | 254
58 | CC(=O)Nc1ccccc1CS(=O)c1nccn1Cc1ccccn1 (stereo not drawn) | 146 to 148
59 | COc1cc(COc2nn(-c3ccccc3)cc2CC(=O)N2CCOCC2)ccc1OCc1nc(-c2ccco2)oc1C | 132 to 133
60 | CCCCCCCC/C=C\CCCCCCCCOc1ccc(C(=O)O)o1 | 93 to 96
61 | Cn1c(=O)c2cnccc2n(C)c1=O | 174 to 175
62 | OCc1ccc(/C=C/c2ccncc2)cc1 | 211 to 213

Results, then the compound that gave them:

Row | melting point [°C] | SMILES
63 | 79 to 81 | Cc1oc(-c2ccccc2)nc1CCOc1ccc(C=O)cc1
64 | 218 to 220 | CNc1nc(-c2cccc(-c3cnc4ccccc4c3)c2)c2cc(OC)c(OC)cc2n1
65 | 177 to 178 | Cc1cnc(-c2cc(-c3ccc(Cl)cc3)c(N3CCOCC3)s2)cc1OCC(F)(F)F
66 | 143 to 145 | Cn1c(=O)n(Cc2ccccc2)c(=O)c2cc(C(=O)OCc3ccccc3)sc21
67 | 173 to 174 | Cc1nc(C)c(-c2ccnc(Nc3ccc(N4CCSCC4)cc3)n2)s1
68 | 184 to 186 | COc1cc([N+](=O)[O-])c2nccc(C)c2c1Oc1ccc(F)cc1
69 | 115 to 119 | CN(C(=O)c1cccc(C=O)c1)c1cccc(F)c1
70 | 131 to 132 | CCCCSc1cc(C(=O)O)cc(N)c1Oc1ccccc1
71 | 211 to 212 | CC(C)(C)OC(=O)N1CC[C@@H](NC(=O)c2ccc(-n3cc4ccccc4n3)cc2)C1
72 | 213 to 215 | CC(=NNC(=N)N)c1sc(-c2ccc(C3=CCCCC3)cc2)nc1C
73 | 207 to 211 | N#Cc1cc(-c2nc3ccccc3s2)ccc1N
74 | 162 to 169 | COc1ccc(CCNc2ncnc3c(F)ccc(F)c23)cc1C
75 | 95 | Cc1nn(C)c(C)c1-c1cccc(OC2SCC(O)C(O)C2O)c1 (stereo not drawn)
76 | 194 to 196 | Cn1cnc(C(N)=O)c1NC(=S)NC(=O)c1ccccc1
77 | 72 to 74 | CCn1nc(-c2ccccc2F)nc1-c1ccccc1C(F)(F)F
78 | 150 to 151 | CC(C)Oc1c(C(N)=O)sc2ccc(N)cc12
79 | 182 to 184 | Cc1nc2c(C=O)cccn2c1[N+](=O)[O-]
80 | 146 | Cc1nc(Nc2ccc(C(C)C)cc2Br)c([N+](=O)[O-])c(-c2ccccc2C(F)(F)F)n1
81 | 163 to 164 | Nc1cccc(-c2nc3n(n2)Cc2ccccc2-3)c1
82 | 100 | OCC1CN(Cc2ccccc2)C(c2ccccc2)O1 (stereo not drawn)
83 | 199 to 201 | COC(=O)c1cn2c(=O)c(Br)c(C)nc2s1

Row | melting point [°C] | SMILES
84 | 192 to 194 | Cc1ccn(-c2ccc(C(=O)O)c(C(F)(F)F)c2)n1
85 | 142 to 143 | Cc1cc(C)n(-c2ccc(NN)nn2)n1
86 | 248 to 251 | Cc1nn(-c2ccccn2)c2ncc(C(=O)O)c(O)c12
87 | 239 to 240 | CC1C(=O)N(c2ccc(S(C)(=O)=O)cc2)N=C1N (stereo not drawn)
88 | 155 to 157 | CN1C(=O)C2(COc3cc4c(cc32)OCO4)c2c(Br)cccc21 (stereo not drawn)
89 | 95 to 97 | COc1ccc2c(c1)c(Cc1cc(=O)n(-c3cccc([N+](=O)[O-])c3)[nH]1)c(C)n2C(=O)c1ccc(Cl)cc1
90 | 146 to 147 | CC(C)(C1=NOS(=O)N1)c1ccc2ccccc2c1 (stereo not drawn)
91 | 163 to 166 | O=C(O)c1cccc(Oc2ccc(O)cc2)c1
92 | 219 to 221 | Nc1nc(Cl)cc(Oc2ccc3c(C(=O)Nc4cccc(C(F)(F)F)c4)cnn3c2)n1
93 | 73.5 to 84.5 | O=[N+]([O-])c1cc(-c2nc3ccccc3s2)cc([N+](=O)[O-])c1
94 | 93 to 95 | COc1ccnc(CCc2nc3ccc(OC)nc3[nH]2)c1
95 | 73.5 to 75.5 | N#Cc1cccc(CN2CCc3cc(Cl)ccc32)c1
96 | 176 to 179 | COc1cc(C)nc(NC(=O)NS(=O)(=O)c2ccccc2OCCOS(C)(=O)=O)n1
97 | 273 to 279 | O=C1Nc2cccnc2Nc2ccsc21
98 | 132 to 134 | O=c1n(C2CCOC2)cc(-c2ccncc2)n1-c1ccc(F)cc1 (stereo not drawn)
99 | 76 to 77 | CCOC(=O)c1cnoc1-c1ccc(Cl)c(F)c1
100 | 133 to 136 | COC(=O)[C@H]1NC(=O)[C@H]1NC(=O)Cc1cccs1 (relative stereo)
101 | 110 to 112 | COc1ccc(Cn2c(Cl)nc3c(Cl)ncnc32)cc1
102 | 195 to 196 | CCCCS(=O)(=O)NC1Cc2ccc(-c3ccc(=O)[nH]n3)cc2C1 (stereo not drawn)
103 | 203 to 204 | O=C(Nc1ccc(-n2nc(C(F)(F)F)cc2C(F)(F)F)cc1)Nc1cccc([N+](=O)[O-])c1
